# Substitutions are numbered along the chain they refer to. Entries after “also recorded” stand apart in the source; their conditions may differ.
# Columns and labels:
# eIF2Bα = molecular target: T1, eIF2Bα (Homo sapiens, UniProt Q14232); assay: Isothermal titration calorimetry, wild-type eIF2Bα; format: binding
# T1 construct: made in house; host or cells: E. coli BL21(DE3)
# T1 sequence (Q14232 1-305): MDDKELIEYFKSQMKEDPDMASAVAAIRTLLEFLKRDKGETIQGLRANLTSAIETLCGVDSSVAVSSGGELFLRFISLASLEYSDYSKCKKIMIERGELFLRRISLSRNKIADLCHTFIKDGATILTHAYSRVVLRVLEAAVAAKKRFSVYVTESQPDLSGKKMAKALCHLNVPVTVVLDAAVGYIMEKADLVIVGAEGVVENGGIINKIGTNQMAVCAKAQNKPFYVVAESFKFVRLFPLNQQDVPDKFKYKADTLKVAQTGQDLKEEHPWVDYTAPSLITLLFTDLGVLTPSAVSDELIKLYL
# Protocol: (§1) Interactions between recombinant protein and sugar phosphates were conducted with a MicroCal PEAQ-ITC (Malvern Panalytical Inc.). Experiments were performed in 25 mM HEPES, 150 mM NaCl, pH 7.5 at 20 °C. The sugar phosphate concentration in the syringe was 1 mM or 1.5 mM, and ~3.5 μL aliquots were injected into cells containing 300 μL eIF2Bα or eIF2B(βδγε) at a concentration of 20–30 μM. The final titration curves were fitted using MicroCal ITC data analysis software, assuming a single binding site per monomer.
# eIF2B(βδγε) = molecular target: T2, eIF2B(βδγε) (Homo sapiens, UniProt P49770+Q9UI10); assay: Isothermal titration calorimetry, eIF2B(βδγε) subcomplex; format: binding; conditions: ITC
# T2 construct: made in house
# Protocol: as §1
# eIF2Bα^N208Y = molecular target: T3, eIF2Bα^N208Y (Homo sapiens, UniProt Q14232, N208Y); assay: Isothermal titration calorimetry, eIF2Bα N208Y; format: binding; conditions: ITC
# T3 construct: made in house; host or cells: E. coli BL21(DE3)
# T3 sequence (Q14232 1-305 N208Y): T1 sequence (Q14232 1-305) with N208Y
# Protocol: as §1
# eIF2Bα^V183F = eIF2Bα^V183F (Homo sapiens, UniProt Q14232, V183F); assay: Isothermal titration calorimetry, eIF2Bα V183F; format: binding; conditions: ITC
# Protocol: Interactions between recombinant protein and sugar phosphates were conducted with a MicroCal PEAQ-ITC (Malvern Panalytical Inc.). Experiments were performed in 25 mM HEPES, 150 mM NaCl, pH 7.5 at 20 °C. […] The final titration curves were fitted using MicroCal ITC data analysis software, assuming a single binding site per monomer.
# eIF2B = molecular target: T4, eIF2B (Homo sapiens, UniProt P49770+Q14232+Q9UI10); assay: eIF2B GEF activity assay, targeted, recombinant wild-type eIF2B; format: biochemical; conditions: dose-response with eIF2B; 95% CI 2.2-5.3 μM; read-out: EC50 of GEF activation (GDP release t1/2)
# T4 construct: made in house; host or cells: eIF2Bα: E. coli BL21(DE3)
# Protocol: Bodipy-FL-GDP-loaded eIF2 was used as a substrate for recombinant eIF2B. The assay was performed in 384-well plates. Reactions were read on a SpectraMax i3x plate reader (Molecular Devices) using the instrument’s Softmax Pro software with the following parameters: plate temperature = 25 °C; excitation wavelength = 485 nm (15 nm width); emission wavelength = 535 nm (25 nm width); read duration = 30 min at 45 s intervals. Data were analyzed in Prism. GDP release half-lives were calculated by fitting single-exponential decay curves.
# For unbiased screening, MIDAS metabolite libraries at 10 mM stock concentration were dispensed into wells of the assay plate using an Echo Acoustic Liquid Handler (Labcyte). In a final assay volume of 10 μL/well, the following conditions were kept constant: 25 nM Bodipy-FL-GDP-loaded eIF2, 4 nM phospho-eIF2, 0.1 mM GDP, 1 mg/mL BSA, 1 nM eIF2B, 10 μM metabolite. A single well was run for each metabolite. For targeted experiments with recombinant wild-type and mutant eIF2Bα, the following conditions were used: 50 nM Bodipy-FL-GDP-loaded eIF2, 0.1 mM GDP, 1 mg/ml BSA, 20 nM eIF2B. For targeted experiments with HEK293T lysates, the following conditions were used: 50 nM Bodipy-FL-GDP-loaded eIF2, 0.1 mM GDP, 1 mg/ml BSA, 0.1 or 0.3 mg/ml lysates.
# [1] = molecular target: T5, recombinant eIF2B(βδγε) ± eIF2Bα2 (Homo sapiens, UniProt P49770+Q14232+Q9UI10); assay: Size-exclusion chromatography of recombinant eIF2B(βδγε) with or without eIF2Bα; format: biochemical; conditions: SEC, recombinant eIF2B(βδγε) + eIF2Bα2; 500 nM ISRIB, 200 μM F6P
# T5 construct: made in house; host or cells: eIF2Bα: E. coli BL21(DE3)
# Protocol: (§2) Purified proteins were thawed and centrifuged at 20,000 × g, 10 min, 4 °C to remove any potential precipitate. Concentrations of eIF2B(βδγε) and eIF2Bα were normalized to 2 μM and 2.4 μM, respectively. 0.2 mL of each mixture was injected onto a Superose 6 Increase 10/300 column connected to an AKTA Pure 25 FPLC system (GE Healthcare). The system was run at 0.5 mL/min for 1 h using 25 mM HEPES, 200 mM KCl, 2 mM MgCl2, 1 mM DTT, pH 7.5 as the mobile phase. For conditions with ISRIB, the protein samples and mobile phase were supplemented with 500 nM ISRIB. For conditions with F6P, the protein samples and mobile phase were supplemented with 200 μM F6P. UV280 measurements were obtained directly by the instrument.
# [2] = molecular target: T6, recombinant eIF2B(βδγε) ± eIF2Bα2 (Homo sapiens, UniProt P49770+Q9UI10); assay: as above; format: biochemical; conditions: SEC, recombinant eIF2B(βδγε); 500 nM ISRIB, 200 μM F6P
# T6 construct: made in house; host or cells: eIF2Bα: E. coli BL21(DE3)
# Protocol: as §2
# Sequence of eIF2Bα^V183F (Q14232 whole entry V183F): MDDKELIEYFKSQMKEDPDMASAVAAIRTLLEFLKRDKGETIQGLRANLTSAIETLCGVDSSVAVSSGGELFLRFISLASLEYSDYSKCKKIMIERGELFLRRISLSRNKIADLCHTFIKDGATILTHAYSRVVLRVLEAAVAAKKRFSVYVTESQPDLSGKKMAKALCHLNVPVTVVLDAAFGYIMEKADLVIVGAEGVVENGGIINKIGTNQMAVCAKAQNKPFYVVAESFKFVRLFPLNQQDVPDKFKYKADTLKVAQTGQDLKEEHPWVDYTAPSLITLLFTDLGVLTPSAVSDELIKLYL
# T6 sequence (P49770 whole entry): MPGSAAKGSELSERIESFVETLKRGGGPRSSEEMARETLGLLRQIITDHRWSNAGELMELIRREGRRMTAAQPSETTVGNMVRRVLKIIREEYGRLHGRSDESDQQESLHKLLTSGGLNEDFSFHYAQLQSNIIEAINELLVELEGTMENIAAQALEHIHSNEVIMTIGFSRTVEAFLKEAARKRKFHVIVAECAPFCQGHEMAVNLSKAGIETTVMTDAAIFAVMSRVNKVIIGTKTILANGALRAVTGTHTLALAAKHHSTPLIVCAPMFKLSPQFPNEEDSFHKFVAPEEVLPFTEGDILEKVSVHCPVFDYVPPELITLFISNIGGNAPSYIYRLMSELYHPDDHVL
# T6 sequence (Q9UI10 2-523): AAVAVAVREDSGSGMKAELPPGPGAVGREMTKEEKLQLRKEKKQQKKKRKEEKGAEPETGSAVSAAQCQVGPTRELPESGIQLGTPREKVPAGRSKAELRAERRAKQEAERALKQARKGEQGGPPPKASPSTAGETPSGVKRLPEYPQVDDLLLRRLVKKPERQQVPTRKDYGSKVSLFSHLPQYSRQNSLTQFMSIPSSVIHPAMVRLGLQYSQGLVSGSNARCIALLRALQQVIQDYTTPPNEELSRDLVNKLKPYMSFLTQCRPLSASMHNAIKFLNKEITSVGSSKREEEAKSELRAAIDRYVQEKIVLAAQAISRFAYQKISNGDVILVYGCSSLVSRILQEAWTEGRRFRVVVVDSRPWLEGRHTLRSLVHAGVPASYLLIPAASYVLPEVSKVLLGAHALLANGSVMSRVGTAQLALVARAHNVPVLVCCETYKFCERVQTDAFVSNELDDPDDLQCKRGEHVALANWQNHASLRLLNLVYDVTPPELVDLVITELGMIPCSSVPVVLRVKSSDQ
# T6 sequence (Q9NR50 whole entry partner): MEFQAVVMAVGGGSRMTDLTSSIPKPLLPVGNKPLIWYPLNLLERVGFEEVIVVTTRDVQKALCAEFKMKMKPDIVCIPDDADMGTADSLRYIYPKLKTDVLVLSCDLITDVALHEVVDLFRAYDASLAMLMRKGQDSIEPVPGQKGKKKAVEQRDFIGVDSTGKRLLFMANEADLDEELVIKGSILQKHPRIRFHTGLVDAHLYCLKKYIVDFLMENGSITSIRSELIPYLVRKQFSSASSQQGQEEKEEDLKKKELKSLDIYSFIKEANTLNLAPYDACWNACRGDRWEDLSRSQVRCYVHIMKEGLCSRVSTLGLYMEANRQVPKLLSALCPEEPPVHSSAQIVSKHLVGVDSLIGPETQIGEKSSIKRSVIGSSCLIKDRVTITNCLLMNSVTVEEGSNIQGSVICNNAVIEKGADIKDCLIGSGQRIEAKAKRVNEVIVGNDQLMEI
# T6 sequence (Q13144 whole entry partner): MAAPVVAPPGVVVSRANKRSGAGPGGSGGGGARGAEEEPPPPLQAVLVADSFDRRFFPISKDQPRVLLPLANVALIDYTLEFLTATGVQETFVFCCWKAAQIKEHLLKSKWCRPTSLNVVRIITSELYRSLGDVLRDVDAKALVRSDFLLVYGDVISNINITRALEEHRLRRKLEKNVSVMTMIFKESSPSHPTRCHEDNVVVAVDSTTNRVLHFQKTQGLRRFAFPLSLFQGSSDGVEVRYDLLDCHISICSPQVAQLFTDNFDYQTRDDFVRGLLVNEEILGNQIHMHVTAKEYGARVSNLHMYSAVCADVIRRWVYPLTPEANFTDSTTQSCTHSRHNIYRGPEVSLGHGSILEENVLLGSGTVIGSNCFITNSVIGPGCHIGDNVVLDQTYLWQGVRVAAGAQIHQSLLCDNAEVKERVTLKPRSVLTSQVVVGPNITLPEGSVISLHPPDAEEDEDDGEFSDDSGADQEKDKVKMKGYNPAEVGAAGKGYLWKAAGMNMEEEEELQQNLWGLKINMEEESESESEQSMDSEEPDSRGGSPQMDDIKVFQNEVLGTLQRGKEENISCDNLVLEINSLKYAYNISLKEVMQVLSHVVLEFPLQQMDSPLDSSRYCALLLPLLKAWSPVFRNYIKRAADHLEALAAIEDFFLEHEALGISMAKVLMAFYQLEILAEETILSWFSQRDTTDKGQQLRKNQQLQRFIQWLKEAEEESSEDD
# T2 sequence (P49770 whole entry): as the sequence (P49770 whole entry) above
# T2 sequence (Q9UI10 whole entry): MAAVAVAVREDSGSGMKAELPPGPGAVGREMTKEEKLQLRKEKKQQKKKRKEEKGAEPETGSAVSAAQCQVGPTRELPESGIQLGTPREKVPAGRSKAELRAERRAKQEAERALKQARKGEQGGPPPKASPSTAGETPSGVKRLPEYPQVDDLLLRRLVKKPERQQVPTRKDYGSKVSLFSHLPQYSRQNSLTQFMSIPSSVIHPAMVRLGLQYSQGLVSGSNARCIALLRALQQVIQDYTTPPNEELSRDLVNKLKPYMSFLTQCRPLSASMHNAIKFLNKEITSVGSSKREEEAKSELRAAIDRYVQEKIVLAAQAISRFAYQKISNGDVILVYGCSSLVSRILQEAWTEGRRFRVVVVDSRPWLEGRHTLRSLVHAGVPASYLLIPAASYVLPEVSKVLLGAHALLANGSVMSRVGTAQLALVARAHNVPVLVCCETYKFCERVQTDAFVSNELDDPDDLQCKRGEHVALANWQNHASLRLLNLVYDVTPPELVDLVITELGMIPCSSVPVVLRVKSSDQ
# T2 sequence (Q9NR50 whole entry partner): as the sequence (Q9NR50 whole entry partner) above
# T2 sequence (Q13144 whole entry partner): as the sequence (Q13144 whole entry partner) above
# T4 sequence (P49770 whole entry, one chain of several): as the sequence (P49770 whole entry) above
# T4 sequence (Q9UI10 whole entry, one chain of several): as the sequence (Q9UI10 whole entry) above
# T4 sequence (Q9NR50 whole entry partner, one chain of several): as the sequence (Q9NR50 whole entry partner) above
# T4 sequence (Q13144 whole entry partner, one chain of several): as the sequence (Q13144 whole entry partner) above
# T5 sequence (P49770 whole entry, one chain of several): as the sequence (P49770 whole entry) above
# T5 sequence (Q9UI10 2-523, one chain of several): as the sequence (Q9UI10 2-523) above
# T5 sequence (Q9NR50 whole entry partner, one chain of several): as the sequence (Q9NR50 whole entry partner) above
# T5 sequence (Q13144 whole entry partner, one chain of several): as the sequence (Q13144 whole entry partner) above
smiles,measurement,setting,value
"O=C(CO)[C@@H](O)[C@H](O)[C@H](O)COP(=O)(O)O [F6P, fructose-6-phosphate]",Kd,"eIF2Bα; ITC, wild-type eIF2Bα",9.4 ± 2.3 µM
same,"ITC binding isotherm, heat per mole of injectant",eIF2Bα; molar ratio 0.037369,-7.609 kcal/mol
same,"ITC binding isotherm, heat per mole of injectant",eIF2Bα; molar ratio 0.225339,-7.342 kcal/mol
same,"ITC binding isotherm, heat per mole of injectant",eIF2Bα; molar ratio 0.415168,-6.77 kcal/mol
same,"ITC binding isotherm, heat per mole of injectant",eIF2Bα; molar ratio 0.606855,-6.002 kcal/mol
same,"ITC binding isotherm, heat per mole of injectant",eIF2Bα; molar ratio 0.8004,-5.049 kcal/mol
same,"ITC binding isotherm, heat per mole of injectant",eIF2Bα; molar ratio 0.995804,-4.011 kcal/mol
same,"ITC binding isotherm, heat per mole of injectant",eIF2Bα; molar ratio 1.19307,-3.038 kcal/mol
same,"ITC binding isotherm, heat per mole of injectant",eIF2Bα; molar ratio 1.39219,-2.241 kcal/mol
same,"ITC binding isotherm, heat per mole of injectant",eIF2Bα; molar ratio 1.59317,-1.647 kcal/mol
same,"ITC binding isotherm, heat per mole of injectant",eIF2Bα; molar ratio 1.796,-1.223 kcal/mol
same,"ITC binding isotherm, heat per mole of injectant",eIF2Bα; molar ratio 2.0007,-0.9255 kcal/mol
same,"ITC binding isotherm, heat per mole of injectant",eIF2Bα; molar ratio 2.20725,-0.7147 kcal/mol
same,"ITC binding isotherm, heat per mole of injectant",eIF2Bα; molar ratio 2.41567,-0.5629 kcal/mol
same,"ITC binding isotherm, heat per mole of injectant",eIF2Bα; molar ratio 2.62594,-0.4515 kcal/mol
same,"ITC binding isotherm, heat per mole of injectant",eIF2Bα; molar ratio 2.83807,-0.3681 kcal/mol
same,"ITC binding isotherm, heat per mole of injectant",eIF2Bα; molar ratio 3.05206,-0.3043 kcal/mol
same,"ITC binding isotherm, heat per mole of injectant",eIF2Bα; molar ratio 3.2679,-0.2547 kcal/mol
same,"ITC binding isotherm, heat per mole of injectant",eIF2Bα; molar ratio 3.48561,-0.2155 kcal/mol
same,"ITC binding isotherm, heat per mole of injectant",eIF2Bα; molar ratio 3.70517,-0.184 kcal/mol
same,interaction with eIF2B(βδγε) subcomplex,eIF2B(βδγε),did not interact appreciably
same,interaction with eIF2Bα N208Y,eIF2Bα^N208Y,does not interact; also recorded: abrogates binding
same,Kd,eIF2Bα^V183F,6.3 ± 0.7 µM
same,EC50,eIF2B,3.4 µM
same,complex formation in the presence of eIF2Bα,[1],enhances eIF2B complex stability
same,complex formation in the absence of eIF2Bα,[2],ineffective at promoting complex formation

# Reference: PMC8187479, “Sugar phosphate activation of the stress sensor eIF2B” (Nature Communications, 2021)
